Test results as given in ChEMBL document CHEMBL3758169, “4-Aminoindazolyl-dihydrofuro[3,4-d]pyrimidines as non-covalent inhibitors of mutant epidermal growth factor receptor tyrosine kinase” (Bioorg Med Chem Lett, 2016).

Key:
[1] = molecular target: Mitogen-activated protein kinase kinase kinase kinase 2 (Homo sapiens) (UniProt Q12851); test: Inhibition of GCK (unknown origin) at 100 nM
[2] = molecular target: Protein kinase C alpha type (Homo sapiens) (UniProt P17252); test: Inhibition of PKCalpha (unknown origin) at 100 nM
[3] = molecular target: 3-phosphoinositide-dependent protein kinase 1 (Homo sapiens) (UniProt O15530); test: Inhibition of PDK1 (unknown origin) at 100 nM
[4] = molecular target: Serine/threonine-protein kinase DCLK2 (Homo sapiens) (UniProt Q8N568); test: Inhibition of DCAMKL2 (unknown origin) at 100 nM
[5] = molecular target: Homeodomain-interacting protein kinase 2 (Homo sapiens) (UniProt Q9H2X6); test: Inhibition of HIPK2 (unknown origin) at 100 nM
Sequence of Homeodomain-interacting protein kinase 2 (Homo sapiens) (Q9H2X6 whole entry, looked up): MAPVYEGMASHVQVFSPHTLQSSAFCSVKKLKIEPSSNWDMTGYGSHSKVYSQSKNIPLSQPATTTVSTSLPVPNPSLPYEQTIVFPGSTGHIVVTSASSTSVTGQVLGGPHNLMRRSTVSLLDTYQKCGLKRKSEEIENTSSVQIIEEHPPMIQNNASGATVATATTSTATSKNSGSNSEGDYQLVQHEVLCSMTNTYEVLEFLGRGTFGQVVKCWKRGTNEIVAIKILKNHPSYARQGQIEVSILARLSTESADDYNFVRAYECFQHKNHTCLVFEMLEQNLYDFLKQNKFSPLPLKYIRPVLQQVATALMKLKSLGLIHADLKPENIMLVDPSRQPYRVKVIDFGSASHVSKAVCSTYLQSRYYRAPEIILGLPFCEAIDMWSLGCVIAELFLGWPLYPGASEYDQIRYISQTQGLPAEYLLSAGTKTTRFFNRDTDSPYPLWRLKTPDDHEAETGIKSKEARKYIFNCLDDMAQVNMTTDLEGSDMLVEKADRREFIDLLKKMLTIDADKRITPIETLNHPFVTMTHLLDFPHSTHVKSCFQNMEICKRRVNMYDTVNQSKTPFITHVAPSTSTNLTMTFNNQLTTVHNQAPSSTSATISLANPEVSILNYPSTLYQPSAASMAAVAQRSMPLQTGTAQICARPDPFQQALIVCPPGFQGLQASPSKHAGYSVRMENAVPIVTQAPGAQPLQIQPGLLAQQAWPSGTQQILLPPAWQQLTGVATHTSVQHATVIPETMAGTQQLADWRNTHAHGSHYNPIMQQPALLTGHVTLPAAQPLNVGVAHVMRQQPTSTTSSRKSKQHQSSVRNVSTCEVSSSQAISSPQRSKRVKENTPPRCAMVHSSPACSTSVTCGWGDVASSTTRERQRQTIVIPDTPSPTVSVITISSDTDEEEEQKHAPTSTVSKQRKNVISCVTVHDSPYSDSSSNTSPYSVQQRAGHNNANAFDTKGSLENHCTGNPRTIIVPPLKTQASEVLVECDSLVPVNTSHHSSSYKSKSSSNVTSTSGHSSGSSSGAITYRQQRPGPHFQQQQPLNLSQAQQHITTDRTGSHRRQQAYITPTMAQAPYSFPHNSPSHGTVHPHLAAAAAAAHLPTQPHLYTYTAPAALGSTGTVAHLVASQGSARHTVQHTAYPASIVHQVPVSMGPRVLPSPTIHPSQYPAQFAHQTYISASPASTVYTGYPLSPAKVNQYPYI

[6] = molecular target: Phosphatidylinositol 4-kinase beta (Homo sapiens) (UniProt Q9UBF8); test: Inhibition of PI4Kb (unknown origin) at 100 nM
[7] = molecular target: Mitogen-activated protein kinase kinase kinase 2 (Homo sapiens) (UniProt Q9Y2U5); test: Inhibition of MEKK2 (unknown origin) at 100 nM
[8] = molecular target: Death-associated protein kinase 1 (Homo sapiens) (UniProt P53355); test: Inhibition of DAPK1 (unknown origin) at 100 nM
[9] = molecular target: Mitogen-activated protein kinase kinase kinase 5 (Homo sapiens) (UniProt Q99683); test: Inhibition of ASK1 (unknown origin) at 100 nM
[10] = molecular target: MAP/microtubule affinity-regulating kinase 3 (Homo sapiens) (UniProt P27448); test: Inhibition of MARK3 (unknown origin) at 100 nM
[11] = molecular target: Activin receptor type-2B (Homo sapiens) (UniProt Q13705); test: Inhibition of ACVR2B (unknown origin) at 100 nM
[12] = molecular target: Serine/threonine-protein kinase Nek6 (Homo sapiens) (UniProt Q9HC98); test: Inhibition of NEK6 (unknown origin) at 100 nM
[13] = molecular target: Serine/threonine-protein kinase TAO3 (Homo sapiens) (UniProt Q9H2K8); test: Inhibition of TAO3 (unknown origin) at 100 nM
[14] = molecular target: Mitogen-activated protein kinase 10 (Homo sapiens) (UniProt P53779); test: Inhibition of JNK3 (unknown origin) at 100 nM
[15] = molecular target: Proto-oncogene tyrosine-protein kinase ROS (Homo sapiens) (UniProt P08922); test: Inhibition of ROS (unknown origin) at 100 nM
[16] = molecular target: Ephrin type-A receptor 7 (Homo sapiens) (UniProt Q15375); test: Inhibition of EPHA7 (unknown origin) at 100 nM
[17] = molecular target: Serine/threonine-protein kinase Nek7 (Homo sapiens) (UniProt Q8TDX7); test: Inhibition of NEK7 (unknown origin) at 100 nM
Sequence of Serine/threonine-protein kinase Nek7 (Homo sapiens) (Q8TDX7 whole entry, looked up): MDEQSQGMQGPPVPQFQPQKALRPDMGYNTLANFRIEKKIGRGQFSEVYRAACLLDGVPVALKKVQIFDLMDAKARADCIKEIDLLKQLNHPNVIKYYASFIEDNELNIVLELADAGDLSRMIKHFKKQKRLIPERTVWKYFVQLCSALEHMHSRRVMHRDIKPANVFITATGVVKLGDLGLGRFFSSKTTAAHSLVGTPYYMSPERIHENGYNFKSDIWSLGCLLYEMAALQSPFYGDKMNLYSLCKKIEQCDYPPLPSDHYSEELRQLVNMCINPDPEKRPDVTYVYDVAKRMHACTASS

[18] = molecular target: Aurora kinase C (Homo sapiens) (UniProt Q9UQB9); test: Inhibition of Aurora C (unknown origin) at 100 nM
[19] = molecular target: Mitogen-activated protein kinase 9 (Homo sapiens) (UniProt P45984); test: Inhibition of JNK2 (unknown origin) at 100 nM
[20] = molecular target: Rho-associated protein kinase 2 (Homo sapiens) (UniProt O75116); test: Inhibition of ROCK2 (unknown origin) at 100 nM
[21] = molecular target: Ephrin type-B receptor 2 (Homo sapiens) (UniProt P29323); test: Inhibition of EPHB2 (unknown origin) at 100 nM
Sequence of Ephrin type-B receptor 2 (Homo sapiens) (P29323 whole entry): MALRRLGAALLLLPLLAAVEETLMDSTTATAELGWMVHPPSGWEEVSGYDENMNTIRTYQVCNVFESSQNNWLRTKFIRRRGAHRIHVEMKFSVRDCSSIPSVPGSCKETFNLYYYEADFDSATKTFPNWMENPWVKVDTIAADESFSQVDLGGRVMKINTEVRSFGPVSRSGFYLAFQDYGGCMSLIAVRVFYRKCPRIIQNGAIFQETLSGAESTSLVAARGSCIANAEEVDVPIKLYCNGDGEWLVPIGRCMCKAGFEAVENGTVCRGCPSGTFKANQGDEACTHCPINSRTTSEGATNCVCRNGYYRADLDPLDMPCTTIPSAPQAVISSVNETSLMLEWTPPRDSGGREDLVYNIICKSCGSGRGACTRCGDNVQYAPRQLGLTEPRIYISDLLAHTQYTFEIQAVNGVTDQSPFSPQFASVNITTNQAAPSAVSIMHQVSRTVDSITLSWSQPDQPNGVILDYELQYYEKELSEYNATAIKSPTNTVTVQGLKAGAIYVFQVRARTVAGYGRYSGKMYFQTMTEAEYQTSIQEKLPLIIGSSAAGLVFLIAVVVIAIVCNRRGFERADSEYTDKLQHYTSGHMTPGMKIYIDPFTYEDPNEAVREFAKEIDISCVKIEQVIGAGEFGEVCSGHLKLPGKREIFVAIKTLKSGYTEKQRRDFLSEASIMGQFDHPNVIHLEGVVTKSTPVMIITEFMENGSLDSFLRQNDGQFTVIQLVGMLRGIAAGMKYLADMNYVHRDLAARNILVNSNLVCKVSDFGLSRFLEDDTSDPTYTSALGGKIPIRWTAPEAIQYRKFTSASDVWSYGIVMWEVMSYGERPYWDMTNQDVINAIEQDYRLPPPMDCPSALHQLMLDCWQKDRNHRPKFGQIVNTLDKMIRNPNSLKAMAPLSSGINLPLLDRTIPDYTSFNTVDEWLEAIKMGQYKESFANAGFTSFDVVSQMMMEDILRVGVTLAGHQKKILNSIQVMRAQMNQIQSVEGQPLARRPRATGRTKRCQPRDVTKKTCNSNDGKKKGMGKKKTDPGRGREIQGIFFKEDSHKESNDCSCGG

[22] = molecular target: Serine/threonine-protein kinase Nek9 (Homo sapiens) (UniProt Q8TD19); test: Inhibition of NEK9 (unknown origin) at 100 nM
[23] = molecular target: BDNF/NT-3 growth factors receptor (Homo sapiens) (UniProt Q16620); test: Inhibition of TRKB (unknown origin) at 100 nM
[24] = molecular target: Homeodomain-interacting protein kinase 1 (Homo sapiens) (UniProt Q86Z02); test: Inhibition of HIPK1 (unknown origin) at 100 nM
Rattus norvegicus = test: Unbound AUC in rat at 5 mg/kg, po; assay type: ADME, organism-based; details: in vivo
[25] = molecular target: Mitogen-activated protein kinase kinase kinase 11 (Homo sapiens) (UniProt Q16584); test: Inhibition of MLK3 (unknown origin) at 100 nM
[26] = molecular target: Serine/threonine-protein kinase 25 (Homo sapiens) (UniProt O00506); test: Inhibition of YSK1 (unknown origin) at 100 nM
[27] = molecular target: Mitogen-activated protein kinase kinase kinase kinase 5 (Homo sapiens) (UniProt Q9Y4K4); test: Inhibition of KHS1 (unknown origin) at 100 nM
Sequence of Mitogen-activated protein kinase kinase kinase kinase 5 (Homo sapiens) (Q9Y4K4 whole entry, looked up): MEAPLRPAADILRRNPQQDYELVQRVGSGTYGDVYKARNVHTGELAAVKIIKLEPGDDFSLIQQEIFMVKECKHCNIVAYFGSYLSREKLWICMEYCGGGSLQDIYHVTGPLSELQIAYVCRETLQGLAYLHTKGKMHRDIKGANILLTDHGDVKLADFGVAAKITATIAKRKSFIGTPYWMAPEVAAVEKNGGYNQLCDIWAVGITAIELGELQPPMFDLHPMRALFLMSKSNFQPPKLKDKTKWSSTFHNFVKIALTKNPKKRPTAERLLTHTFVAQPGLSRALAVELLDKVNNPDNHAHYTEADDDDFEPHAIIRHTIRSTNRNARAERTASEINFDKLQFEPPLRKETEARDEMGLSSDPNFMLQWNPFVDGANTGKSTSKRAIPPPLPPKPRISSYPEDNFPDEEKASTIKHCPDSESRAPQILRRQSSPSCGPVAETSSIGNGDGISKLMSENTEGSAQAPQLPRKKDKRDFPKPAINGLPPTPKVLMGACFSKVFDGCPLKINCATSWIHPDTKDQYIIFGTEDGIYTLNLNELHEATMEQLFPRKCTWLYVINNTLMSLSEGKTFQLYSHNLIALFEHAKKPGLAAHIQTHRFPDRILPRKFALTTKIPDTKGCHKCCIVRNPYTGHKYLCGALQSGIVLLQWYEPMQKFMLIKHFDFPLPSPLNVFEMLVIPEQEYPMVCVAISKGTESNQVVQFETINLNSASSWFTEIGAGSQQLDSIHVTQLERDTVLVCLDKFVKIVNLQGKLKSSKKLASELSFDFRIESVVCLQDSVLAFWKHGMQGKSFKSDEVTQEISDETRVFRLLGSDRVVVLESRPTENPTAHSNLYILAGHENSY

[28] = molecular target: Serine/threonine-protein kinase PAK 1 (Homo sapiens) (UniProt Q13153); test: Inhibition of PAK1 (unknown origin) at 100 nM
[29] = molecular target: Mitogen-activated protein kinase 3 (Homo sapiens) (UniProt P27361); test: Inhibition of ERK1 (unknown origin) at 100 nM
[30] = molecular target: Tyrosine-protein kinase Fer (Homo sapiens) (UniProt P16591); test: Inhibition of FER (unknown origin) at 100 nM
[31] = molecular target: Serine/threonine-protein kinase Chk2 (Homo sapiens) (UniProt O96017); test: Inhibition of CHK2 (unknown origin) at 100 nM
[32] = molecular target: Mitogen-activated protein kinase kinase kinase 3 (Homo sapiens) (UniProt Q99759); test: Inhibition of MEKK3 (unknown origin) at 100 nM
[33] = molecular target: Homeodomain-interacting protein kinase 3 (Homo sapiens) (UniProt Q9H422); test: Inhibition of HIPK3 (unknown origin) at 100 nM
Sequence of Homeodomain-interacting protein kinase 3 (Homo sapiens) (Q9H422 whole entry, looked up): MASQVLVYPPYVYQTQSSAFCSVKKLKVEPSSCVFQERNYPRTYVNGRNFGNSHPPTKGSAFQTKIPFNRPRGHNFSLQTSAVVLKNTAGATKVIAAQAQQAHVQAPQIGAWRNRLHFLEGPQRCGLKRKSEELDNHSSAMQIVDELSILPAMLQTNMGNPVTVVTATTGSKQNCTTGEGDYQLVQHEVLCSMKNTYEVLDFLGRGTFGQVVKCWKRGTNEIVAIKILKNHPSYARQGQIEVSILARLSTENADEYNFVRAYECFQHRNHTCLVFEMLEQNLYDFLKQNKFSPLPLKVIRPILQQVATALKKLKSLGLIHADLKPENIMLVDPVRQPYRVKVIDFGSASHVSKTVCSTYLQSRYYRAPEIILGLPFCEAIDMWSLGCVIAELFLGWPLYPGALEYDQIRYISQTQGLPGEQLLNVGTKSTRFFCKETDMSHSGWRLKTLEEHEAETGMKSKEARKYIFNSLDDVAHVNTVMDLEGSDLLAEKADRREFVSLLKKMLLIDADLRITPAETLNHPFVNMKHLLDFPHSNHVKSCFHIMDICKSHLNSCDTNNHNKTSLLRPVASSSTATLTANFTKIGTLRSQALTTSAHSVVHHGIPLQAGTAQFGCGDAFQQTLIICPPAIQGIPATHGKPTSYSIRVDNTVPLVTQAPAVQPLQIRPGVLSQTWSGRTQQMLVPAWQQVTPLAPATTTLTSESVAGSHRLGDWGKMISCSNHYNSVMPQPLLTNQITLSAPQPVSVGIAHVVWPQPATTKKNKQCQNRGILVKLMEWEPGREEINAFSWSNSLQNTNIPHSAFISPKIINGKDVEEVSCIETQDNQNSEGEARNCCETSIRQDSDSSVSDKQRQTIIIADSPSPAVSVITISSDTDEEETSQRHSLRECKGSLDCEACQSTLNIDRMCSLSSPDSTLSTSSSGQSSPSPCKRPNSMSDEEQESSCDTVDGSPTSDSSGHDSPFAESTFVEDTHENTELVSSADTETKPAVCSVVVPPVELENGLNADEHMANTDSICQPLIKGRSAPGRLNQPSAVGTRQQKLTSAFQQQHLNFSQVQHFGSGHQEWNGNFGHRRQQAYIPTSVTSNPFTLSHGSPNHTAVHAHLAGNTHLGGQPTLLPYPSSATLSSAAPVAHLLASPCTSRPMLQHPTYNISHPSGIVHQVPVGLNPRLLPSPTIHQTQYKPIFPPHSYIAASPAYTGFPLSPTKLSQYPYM

[34] = molecular target: Calcium/calmodulin-dependent protein kinase kinase 1 (Homo sapiens) (UniProt Q8N5S9); test: Inhibition of CaMKK1 (unknown origin) at 100 nM
[35] = molecular target: Serine/threonine-protein kinase Nek2 (Homo sapiens) (UniProt P51955); test: Inhibition of NEK2 (unknown origin) at 100 nM
Sequence of Serine/threonine-protein kinase Nek2 (Homo sapiens) (P51955 whole entry): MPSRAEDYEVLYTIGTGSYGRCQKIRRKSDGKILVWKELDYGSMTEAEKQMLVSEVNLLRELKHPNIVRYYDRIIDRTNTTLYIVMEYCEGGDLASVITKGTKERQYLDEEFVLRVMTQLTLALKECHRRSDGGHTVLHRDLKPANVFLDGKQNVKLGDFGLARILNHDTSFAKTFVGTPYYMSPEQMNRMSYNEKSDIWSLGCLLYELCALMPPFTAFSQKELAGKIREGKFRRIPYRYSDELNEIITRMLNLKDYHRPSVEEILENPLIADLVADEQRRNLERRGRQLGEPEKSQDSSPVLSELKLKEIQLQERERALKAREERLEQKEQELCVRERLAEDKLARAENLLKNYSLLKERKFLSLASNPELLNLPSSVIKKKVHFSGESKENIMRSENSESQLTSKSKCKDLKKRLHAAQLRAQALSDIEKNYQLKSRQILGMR

[36] = molecular target: Activin receptor type-1B (Homo sapiens) (UniProt P36896); test: Inhibition of ACVR1B (unknown origin) at 100 nM
[37] = molecular target: PAS domain-containing serine/threonine-protein kinase (Homo sapiens) (UniProt Q96RG2); test: Inhibition of PASK (unknown origin) at 100 nM
[38] = molecular target: Cyclin-dependent kinase 5/CDK5 activator 1 (Homo sapiens) (UniProt Q00535+Q15078); test: Inhibition of CDK5/p35 (unknown origin) at 100 nM; assay type: protein-complex assay
[39] = molecular target: Serine/threonine-protein kinase PLK3 (Homo sapiens) (UniProt Q9H4B4); test: Inhibition of PLK3 (unknown origin) at 100 nM
[40] = molecular target: Testis-specific serine/threonine-protein kinase 2 (Homo sapiens) (UniProt Q96PF2); test: Inhibition of TSSK2 (unknown origin) at 100 nM
[41] = molecular target: MAP kinase-interacting serine/threonine-protein kinase 2 (Homo sapiens) (UniProt Q9HBH9); test: Inhibition of MKNK2 (unknown origin) at 100 nM
[42] = molecular target: Dual specificity protein kinase TTK (Homo sapiens) (UniProt P33981); test: Inhibition of TTK (unknown origin) at 100 nM

CC1(C)OCc2c(Nc3n[nH]c4c(Cl)cccc34)nc(-c3cn[nH]c3)nc21
inhibition [1]: 6.4%

CC1(C)OCc2c(Nc3n[nH]c4ccccc34)nc(-c3cn[nH]c3)nc21
inhibition [2]: 7% | inhibition [3]: 3.4% | inhibition [4]: 1.8% | inhibition [5]: 1.3% | inhibition [6]: 10.1% | inhibition [7]: 43.6% | inhibition [8]: 2.2% | inhibition [9]: 4.2% | inhibition [10]: 8.4% | inhibition [11]: 96.8% | inhibition [12]: 9.9% | inhibition [13]: 6.2% | inhibition [14]: 18.6% | inhibition [15]: 11.4% | inhibition [16]: 35.9% | inhibition [17]: 8.4% | inhibition [18]: 1.2% | inhibition [19]: 44.8% | inhibition [20]: -10% | inhibition [21]: 15.3% | inhibition [22]: -0.2% | inhibition [23]: -1.4% | inhibition [24]: -2% | fAUC (Rattus norvegicus): 50 nM·h | inhibition [25]: 6.7% | inhibition [26]: 5.1% | inhibition [27]: 12.7% | inhibition [28]: -4.1% | inhibition [29]: 10.9% | inhibition [30]: 6.9% | inhibition [31]: -1.3% | inhibition [32]: 49.3% | inhibition [33]: 8.6% | inhibition [34]: 7% | inhibition [35]: 7.7% | inhibition [36]: 70.7% | inhibition [37]: 1.2% | inhibition [38]: 3.1% | inhibition [39]: -5.4% | inhibition [40]: 4% | inhibition [41]: -2.3% | inhibition [42]: 4.3%
